Experimental data reported in US8232273B2, “Heterocyclic compounds and methods of use” (Genentech, Inc., priority 2008, dated 2012).

What was measured:
[1] = test system: Mcl-1-/- mouse embryonic fibroblasts (MEF); experiment: Cell viability assay for Mcl-1-/- mouse embryonic fibroblasts (CellTiter-Glo); assay type: cell-based; details: Fibroblast, in the presence of 10% Fetal Bovine Serum, read-out: MEF Mcl-1-/- KO cell viability results (EC50)
Text: a. Cell Viability Assay for Mcl-1^−/− Mouse Embryonic Fibroblasts (MEF): […]
In this assay, Mcl-1^(−/−) cells were used to confirm that cell apoptosis in the presence of BH3 mimetic small molecules was due to predominantly Bcl-xL inactivation. This inactivation leaves Bax/Bak unconstrained and results in apoptosis. The […]-GLO Luminescent Cell Viability Assay is a homogeneous method of determining the number of viable cells in culture based on quantitation of the ATP present. The amount of ATP correlates with the presence of metabolically active cells such that following cell lysis the amount of ATP present is proportional to the amount of luminescence measured.
Mcl-1^(−/−) mouse embryonic fibroblasts (MEFs) are an adherent cell line prepared in house. MEFs were grown in Iwaki 75 cm^2 tissue culture flasks (cat #3123-075) with FMA media which consists of • 89% DME Kelso • 10% heat-inactivated foetal calf serum (FCS) (Hyclone cat #SH30396.03) • 1% 10 mM asparagine (Fluka cat #11149) • 275 μl of a 1:2000 dilution of 2-mercaptoethanol is added to the final 500 ml volume of FMA (Sigma cat #M7522; diluted in MT-PBS)
FMA was stored at 4° C. and used at 37° C. MEFs were cultured in FMA media and harvested in MT-PBS and trypsin. For MEF cell viability assays, cells were seeded separately in plates with 10% FCS-FMA and 1% FCS-FMA.
Assays were performed using white, flat clear-bottom Greiner 384-well tissue culture grade (Interpath #781098) plates. The compounds were made up in Matrical 384-well, 25 μl V-bottomed plates (cat #MP101-2-PP), sealed with aluminium foil from Beckman Coulter (cat #538619) and stored at 12° C. overnight. Compound preparation and titrations were performed in AnalaR grade DMSO (Merck cat #1.02952.2500). The cell viability detection assay used was […]-GLO™ which is commercially available from Promega (cat #G7572), stored at −20° C. and used at 37° C.
Compounds of the invention were prepared as 10 mM solution in 100% DMSO and stored at −20° C. Compounds were thawed to room temperature and dispensed into a 384 well Matrical plate. Standard control compounds, e.g. 32.3 mM Etoposide, were added to the plate as controls.
The media was aspirated and the Mcl-1^(−/−) cells washed with 10 mls of warmed MT-PBS. MT-PBS was aspirated and 1 ml of trypsin was added. The T75 flasks were incubated at 37° C. until the cells became detached. 4 ml of 10% FCS FMA media was added to the trypsinized cells and the entire volume was transferred to a 50 ml centrifuge tube and centrifuged for 3 minutes at 250 g. The supernatant was aspirated and the pellet resuspended in 10 ml of 10% FCS FMA. 3 ml of this cell suspension was added to a clean 75 cm^2 flask containing 17 ml of 10% FCS FMA media, thus performing a 3:10 split. The remaining cell suspension was used to perform a 1:50 split into another 75 cm^2 flask for further culturing.
Cells were harvested as per method step 1 and the pellet resuspended in 3 mls 10% FCS FMA. Cell number was determined by counting in a Neubauer haemocytometer and the dilution calculated to achieve a density of 1×10^4 cells ml^−1 (500 cells per well in 50 μl media). Separate dilutions were prepared in 50 ml 10% FCS FMA and 50 ml 1% FCS FMA solutions respectively.
Four assay plates were set up per compound plate. Two 384 well plates containing Mcl-1^(−/−) cells in 10% FCS FMA and the other two plates containing Mcl-1^(−/−) cells in 1% FCS FMA.
Using the Multidrop, 25 μl cells were dispensed aseptically into all 384 wells of the assay plates. Plates were left to rest in a non-stacked layer at room temperature for approximately 30 minutes (minimizes edge-effects) and then were placed as a single layer in the 37° C. incubator. The plates were left to incubate overnight.
The compound plates were titrated by performing a 3-fold 11-point dilution series using 100% DMSO on the MiniTrak. Following titration of the compounds, 100 nl of compounds were added to the cell plates using the Zymark Sciclone Pintool. […]

Bcl-2 (GST-Bcl-2) = target: T1, Bcl-2 (GST-Bcl-2) (Homo sapiens, UniProt P10415); experiment: TR-FRET binding assay, competition with F-Bak for the Bcl-2 binding site; details: Bcl-2, for comparison (selectivity)
T1 construct: made in house
T1 sequence (P10415 whole entry, species assumed): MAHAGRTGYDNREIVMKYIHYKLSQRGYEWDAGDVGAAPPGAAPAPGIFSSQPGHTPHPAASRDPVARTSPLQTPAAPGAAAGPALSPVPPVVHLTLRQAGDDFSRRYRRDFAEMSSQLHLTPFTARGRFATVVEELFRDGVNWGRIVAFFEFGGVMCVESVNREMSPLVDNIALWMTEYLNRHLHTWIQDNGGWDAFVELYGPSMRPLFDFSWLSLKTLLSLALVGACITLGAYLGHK
Experimental: For each assay plate, a probe/antibody and protein/antibody/probe mixture were included as a negative and a positive control, respectively. Fluorescence was measured on the Envision (Perkin Elmer) using a 340/35 nm excitation filter and 520/525 (F-Bak) and 495/510 nm (Tb-labeled anti-his antibody) emission filters. Dissociation constants (Ki) were determined using Wang's equation (see, Wang, Z. X. An exact mathematical expression for describing competitive binding of two different ligands to a protein molecule. FEBS Lett. 1995 360:111-114). The TR-FRET assay can be performed in the presence of varying concentrations of human serum (HS) or fetal bovine serum (FBS). For comparison, the measurement of the competition of compounds of the invention for other Bcl-2 family protein binding sites (e.g., Bcl-2, Mcl-1) using the TR-FRET binding assay was accomplish by substituting GST-Bcl-xL in the TR-FRET assay with other GST-labeled protein, e.g., GST-Bcl-2, GST-Mcl-1, prepared in-house.

Bcl-xL (GST-Bcl-xL) = Bcl-xL (GST-Bcl-xL) (Homo sapiens, UniProt Q07817); experiment: TR-FRET binding assay, competition with F-Bak for the Bcl-xL binding site; details: values listed in the order of Table 1, read-out: TR-FRET assay results (Ki), Bcl-xL
Bcl-xL (GST-Bcl-xL), sequence (Q07817 whole entry, species assumed): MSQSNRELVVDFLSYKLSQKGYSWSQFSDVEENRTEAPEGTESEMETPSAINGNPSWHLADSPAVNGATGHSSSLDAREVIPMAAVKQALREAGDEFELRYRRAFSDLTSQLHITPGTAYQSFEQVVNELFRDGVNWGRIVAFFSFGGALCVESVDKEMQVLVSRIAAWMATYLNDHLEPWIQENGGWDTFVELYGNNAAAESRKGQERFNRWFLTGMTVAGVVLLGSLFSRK

platelets = experiment: Cell viability assay for platelets (platelet rich plasma, CellTiter-Glo); assay type: cell-based; details: approximately 4 hours at 37 C
Experimental: Platelet rich plasma (PRP) was incubated with a compound of the invention for approximately 4 hours at 37° C. After incubation, platelets were equilibrated to room temperature for 20 minutes and then and equal volume of CELL TITER-GLO™ reagent (Promega Corporation) was added. Samples were mixed for two minutes and then allowed to equilibrate for an additional 10 minutes at room temperature. The luminescence generated from the samples was quantitated using a LJL Analyst plate reader. Data analysis was performed using GraphPad Prism 4.0.

[2] = test system: NCI-H146 human small cell lung carcinoma cells; experiment: Cellular viability of human tumor cell line NCI-H146 (MTS assay); assay type: cell-based; details: 10% human serum, 48 hours of compound treatment
Experimental: NCI-H146 (ATCC, Manassas, Va.) human small cell lung carcinoma cells were plated 50,000 cells per well in 96-well tissue culture plates in a total volume of 100 μL tissue culture medium supplemented with 10% human serum (Invitrogen, Carlsbad, Calif.) and treated with a 2-fold serial dilution of the compounds of interest from 10 μM to […].
Each concentration was tested in duplicate at least 3 separate times. The number of viable cells following 48 hours of compound treatment was determined using the […] 96® Aqueous non-radioactive cell proliferation MTS assay according to manufacturer's recommendations (Promega Corp., Madison, Wis.).

| SMILES | EC50 [1] | Ki (Bcl-2 (GST-Bcl-2)) | Ki (Bcl-xL (GST-Bcl-xL)) | EC50 (platelets) | EC50 [2] |
| --- | --- | --- | --- | --- | --- |
| O=C(Nc1nc2ccccc2s1)c1cccc2c1CN(c1nc(C(=O)O)c(CCCOc3ccc(-c4ncccn4)cc3)s1)CC2 [Example 81, 2-[8-(Benzothiazol-2-ylcarbamoyl)-3,4-dihydro-1H-isoquinolin-2-yl]-5-[3-(4-pyrimidin-2-yl-phenoxy)-propyl]-thiazole-4-carboxylic acid] | 10 nM | 110 nM | 0.05 nM | – | – |
| N#Cc1ncccc1-c1ccc(OCCCc2sc(N3CCc4cccc(C(=O)Nc5nc6ccccc6s5)c4C3)nc2C(=O)O)cc1 [Example 58, 2-[8-(Benzothiazol-2-ylcarbamoyl)-3,4-dihydro-1H-isoquinolin-2-yl]-5-{3-[4-(2-cyano-pyridin-3-yl)-phenoxy]-propyl}-thiazole-4-carboxylic acid] | 1300 nM | 310 nM | 0.5 nM | – | – |
| CN(C)CC#Cc1ccc(OCCCc2ccc(N3CCc4cccc(C(=O)Nc5nc6ccccc6s5)c4C3)nc2C(=O)O)c(F)c1 [Example 97, 6-(8-(benzo[d]thiazol-2-ylcarbamoyl)-3,4-dihydroisoquinolin-2(1H)-yl)-3-(3-(4-(3-(dimethylamino)prop-1-ynyl)-2-fluorophenoxy)propyl)picolinic acid] | 26 nM | 272 nM | 0.05 nM | 3 nM | 2400 nM |
| O=C(Nc1nc2ccccc2s1)c1cccc2c1CN(c1nc(C(=O)O)c(CCCOc3ccc(N4CCNCC4)cc3)s1)CC2 [Example 64, 2-[8-(Benzothiazol-2-ylcarbamoyl)-3,4-dihydro-1H-isoquinolin-2-yl]-5-[3-(4-piperazin-1-yl-phenoxy)-propyl]-thiazole-4-carboxylic acid] | 310 nM | 90 nM | 0.05 nM | – | – |
| CN(C)CC#Cc1ccc(OCCCc2sc(N3CCc4cccc(C(=O)Nc5nc6ccccc6s5)c4C3)nc2C(=O)O)cc1 [Example 74, 2-[8-(Benzothiazol-2-ylcarbamoyl)-3,4-dihydro-1H-isoquinolin-2-yl]-5-{3-[4-(3-dimethylamino-prop-1-ynyl)-phenoxy]-propyl}-thiazole-4-carboxylic acid] | 7 nM | 60 nM | 0.05 nM | 21 nM | 710 nM |
| CN1CCN(c2ccc(OCCCc3sc(N4CCc5cccc(C(=O)Nc6nc7ccccc7s6)c5C4)nc3C(=O)O)cc2)CC1 [Example 82, 2-[8-(Benzothiazol-2-ylcarbamoyl)-3,4-dihydro-1H-isoquinolin-2-yl]-5-{3-[4-(4-methyl-piperazin-1-yl)-phenoxy]-propyl}-thiazole-4-carboxylic acid] | 30 nM | 120 nM | 0.05 nM | – | 2500 nM |
| CN1CCN(c2ccc(OCCCc3sc(N4CCc5cccc(C(=O)Nc6nc7ccccc7s6)c5C4)nc3C(=O)O)c(F)c2)CC1 [Example 93, 2-[8-(Benzothiazol-2-ylcarbamoyl)-3,4-dihydro-1H-isoquinolin-2-yl]-5-{3-[2-fluoro-4-(4-methyl-piperazin-1-yl)-phenoxy]-propyl}-thiazole-4-carboxylic acid] | – | 155 nM | 0.05 nM | – | 3200 nM |
| CN1CCN(c2ccc(OCCCc3ccc(N4CCc5cccc(C(=O)Nc6nc7ccccc7s6)c5C4)nc3C(=O)O)cc2)CC1 [Example 94, 6-[8-(Benzothiazol-2-ylcarbamoyl)-3,4-dihydro-1H-isoquinolin-2-yl]-3-{3-[4-(4-methyl-piperazin-1-yl)-phenoxy]-propyl}-pyridine-2-carboxylic acid] | 448 nM | 572 nM | 2 nM | – | – |
| CN1CCN(CCCNc2ncnc3c2cnn3-c2ccc(OCCCc3sc(N4CCc5cccc(C(=O)Nc6nc7ccccc7s6)c5C4)nc3C(=O)O)cc2)CC1 [Example 84, 2-(8-(benzo[d]thiazol-2-ylcarbamoyl)-3,4-dihydroisoquinolin-2(1H)-yl)-5-(3-(4-(4-(3-(4-methylpiperazin-1-yl)propylamino)-1H-pyrazolo[3,4-d]pyrimidin-1-yl)phenoxy)propyl)thiazole-4-carboxylic acid] | 22 nM | 140 nM | 0.05 nM | – | 610 nM |
| O=C(Nc1nc2ccccc2s1)c1cccc2c1CN(c1nc(C(=O)O)c(CCCOc3ccc(OCCN4CCOCC4)cc3)s1)CC2 [Example 88, 2-[8-(Benzothiazol-2-ylcarbamoyl)-3,4-dihydro-1H-isoquinolin-2-yl]-5-{3-[4-(2-morpholin-4-yl-ethoxy)-phenoxy]-propyl}-thiazole-4-carboxylic acid] | 28 nM | 300 nM | 0.05 nM | 3 nM | – |
| CN(C)CCCc1ccc(OCCCc2ccc(N3CCc4cccc(C(=O)Nc5nc6ccccc6s5)c4C3)nc2C(=O)O)c(F)c1 [Example 100, 6-[8-(Benzothiazol-2-ylcarbamoyl)-3,4-dihydro-1H-isoquinolin-2-yl]-3-{3-[4-(3-dimethylamino-propyl)-2-fluoro-phenoxy]-propyl}-pyridine-2-carboxylic acid] | 399 nM | 219 nM | 0.5 nM | – | – |
